Experiment [1] deals with Bacillus subtilis ATCC 6633. The experiment can be described thus: Minimum inhibitory concentration (MIC). Conditions: ATCC6633; Bacillus subtilis ATCC 6633, Gram +; read-out: Minimum inhibitory concentration (MIC). Format: cell-based. A digest of the protocol:
(§1)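 Test compounds were dissolved at 5000 μg/ml (stock) in 0.1N aqueous KOH or in sterilized distilled water, then diluted with sterile water to a 1000 μg/ml standard solution. MICs were determined by the Japan Society of Chemotherapy standard method.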

The test system of experiment [2] is Pseudomonas aeruginosa IFO 3445. The experiment can be described thus: Minimum inhibitory concentration (MIC). Format: cell-based. The following applies: Pseudomonas aeruginosa, IFO3445, Pseudomonas aeruginosa IFO 3445, Gram -. A digest of the protocol:
as §1

Experiment [3] relates to Klebsiella pneumoniae PCI 602. The experiment can be described thus: Minimum inhibitory concentration (MIC). Format: cell-based. The following applies: Klebsiella pneumoniae, PCI602, Klebsiella pneumoniae PCI 602, Gram -; read-out: Minimum inhibitory concentration (MIC). A digest of the protocol:
as §1

Experiment [4] relates to Escherichia coli KC-14. In words: Minimum inhibitory concentration (MIC). Format: cell-based. The following applies: KC14; Escherichia coli KC-14, Gram -. A digest of the protocol: as §1
The test system of experiment [5] is Pseudomonas aeruginosa NCTC 10490. The experiment can be described thus: Minimum inhibitory concentration (MIC). Conditions: Pseudomonas aeruginosa, NCTC10490, Pseudomonas aeruginosa NCTC 10490, Gram -. Format: cell-based. A digest of the protocol:
as §1

The subject of experiment [6] is Morganella morganii IFO 3848. The experiment can be described thus: Minimum inhibitory concentration (MIC). The following applies: IFO3848; Morganella morganii IFO 3848, Gram -. Format: cell-based. A digest of the protocol:
as §1

For experiment [7], the system named is Staphylococcus aureus IID 803. The experiment can be described thus: Minimum inhibitory concentration (MIC). Conditions: IID803; Staphylococcus aureus IID 803, Gram +; read-out: Minimum inhibitory concentration (MIC). It is filed as cell-based. The method in brief: as §1
Experiment [8] has as its system Staphylococcus aureus FDA 209P JC-1. The experiment can be described thus: Minimum inhibitory concentration (MIC). Conditions: FDA209P; Staphylococcus aureus FDA 209P JC-1, Gram +. Format: cell-based. The method in brief: as §1
Experiment [9] has as its system Micrococcus luteus ATCC 9341. In words: Minimum inhibitory concentration (MIC). It is filed as cell-based. Conditions: ATCC9341; Micrococcus luteus ATCC 9341, Gram +. A digest of the protocol:
as §1

The subject of experiment [10] is Acinetobacter calcoaceticus AC 54. In words: Minimum inhibitory concentration (MIC). Format: cell-based. The following applies: Acinetobacter calcoaceticus, AC54, Acinetobacter calcoaceticus AC 54, Gram -. The method in brief:
as §1

In experiment [11] the test system is Citrobacter freundii NIHJ 10018-68. The experiment can be described thus: Minimum inhibitory concentration (MIC). It is filed as cell-based. The following applies: NIHJ10018; Citrobacter freundii NIHJ 10018-68, Gram -. A digest of the protocol: as §1
Experiment [12] relates to Pseudomonas aeruginosa E-2. In words: Effect on treatment of general infectious disease. Format: in vivo, ddY male mice. Conditions: E2, 168 h, P. aeruginosa E-2, 1.6×10^4 CFU/mouse i.p., oral one hour after infection, survival after one week. On the procedure:
Pseudomonas aeruginosa E-2 (1.6×10^4 CFU/mouse)
(§2) The test microorganisms were subjected to standing culture in Trypto-Soya Agar "Nissui" (made by Nissui Seiyaku K.K., Japan) at 37° C. for 16 to 18 hours. The culture was then diluted with PBS (Dulbecco's phosphate buffered saline) and mixed with an equivalent amount of 10% (w/v) Mucin (BACTO MUCIN BACTERIOLOGICAL, made by Difco Co.) to prepare a microorganism solution. The thus prepared microorganism solution (0.5 ml each) was intraperitoneally innoculated to ddY male mice (4 weeks age, weighing 20-22 g, 5 mice in each group), to infect the animals. One hour after the infection, the compound (B) of the present invention dissolved in sterilized distilled water or ofloxacin suspended in 0.5% (w/v) aqueous sodium carboxymethyl cellulose solution was orally adiministered to mice.
(§3) The mice were daily observed for one week, and from the survival number of mice after one week, the 50% effective dose (ED50) was calculated by Weil method.

The subject of experiment [13] is methicillin resistant Staphylococcus aureus. The experiment can be described thus: Minimum inhibitory concentration against clinically isolated methicillin resistant Staphylococcus aureus. Format: cell-based. The method, then: The compound (B) was dissolved in sterilized distilled water, and ofloxacin in 0.1N aqueous potassium hydroxide, to prepare a solution of 5000 μg/ml in concentration each. The above solutions were then diluted with sterilized distilled water to prepare a standard solution with a concentration of the test compound: 1000 μg/ml each. The test was carried out by a method approved by Japan Society of Chemotherapy (ibidem) to measure minimum inhibitory concentration (MIC) against 54 strains of clinically isolated methicillin resistant Staphylococcus aureus, from which there were calculated a range of MIC (MICrange) of the test compound against these resistant strains, a minimum concentration for inhibiting the growth of the strains by 50% (MIC50) and a minimum concentration for inhibiting the growth of the strains by 90% (MIC90).

For experiment [14], the system named is Escherichia coli KC-14. In words: Effect on treatment of general infectious disease. Format: in vivo, ddY male mice. The following applies: KC14, 168 h, E. coli KC-14, 1.2×10^4 CFU/mouse i.p., oral one hour after infection, survival after one week. The method, then: Escherichia coli KC-14 (1.2×10^4 CFU/mouse)
as §2, §3

The subject of another experiment is bacteria. Conditions: prior art, U.S. Pat. No. 4,382,892; cited from earlier work.
A further experiment has as its system E. coli KC-14. In words: Effect on treatment of infectiousness of the genito-urinary tract. Conditions: Escherichia coli, KC14, 48 h; E. coli KC-14, 5.6×10^5 CFU/mouse into urinary bladder; oral; not more than 10^4 living bacteria/1 g of kidney regarded as effective. It is filed as in vivo, ICR female mice. On the procedure: 2. Test microorganism and inoculum size E. coli KC-14 (5.6×10^5 CFU/mouse) 3. Method:
A microorganism solution (0.1 ml) prepared in the same manner as described in Experiment 3 was introduced into urinary bladder through urinary tract of ICR female mice (5 weeks age, weighing 20 to 22 g, 5 mice in each group), and then urinary meatus was clasped with clip for 4 hours to infect the animals. After taking off the clip, the compound (B) of the present invention dissolved in sterilized distilled water or ofloxacin suspended in 0.5% aqueous sodium carboxymethyl cellulose solution was orally administered to mice. Two days after the infection, mice kidneys were taken out and weighed, to which PBS (Dulbecco's phosphate buffered saline) was added and the mixture was homogenized. The homogenate was then diluted with PBS and inoculated onto a plate of modified Drigalski Agar (BTB lactose agar "Nissui", made by Nissui Seiyaku K.K., Japan) and cultured at 37° C. for 18 hours. The number of the colonies of infectious bacteria grown on the plate was counted. The number of living bacteria per 1 g of kidney was calculated from the number of colonies and the kidney weight. The living bacteria number/1 g of kidney of not more than 10^4 was regarded as effective and an effective dose for 50% mice (ED50) was calculated by Weil method.

Each structure is given as a SMILES string. In brackets after ≈: the same amount, converted by molar mass.

A word on the ED50: it is the dose at which the effect has come halfway, by size or by number of responders. Read a low ED50 as greater potency. One may read the MIC50 as an inhibitory concentration at the 50% level, which refers to growth in some studies and to a panel of isolates in others. The term MIC90 denotes an inhibitory concentration at the 90% level, which refers to growth in some studies and to a panel of isolates in others. Low values mean greater potency, high ones weaker potency. Regarding `CC1COc2c(N3CCN(C)CC3)c(F)cc3c(=O)c(C(=O)O)cn1c23` (racemic) [Ofloxacin, reference compound], the MIC turned out to be 0.1 µg/mL (≈ 0.277 µM) in experiment [1]; 1.56 µg/mL (≈ 4.32 µM) in experiment [2]; 0.05 µg/mL (≈ 0.138 µM) in experiment [3]; 0.1 µg/mL (≈ 0.277 µM) against Escherichia coli KC-14 [4]; 1.56 µg/mL (≈ 4.32 µM) in experiment [5]; 0.1 µg/mL (≈ 0.277 µM) in [6]. The MIC in [7] was 0.39 µg/mL (≈ 1.08 µM); in experiment [8], 0.39 µg/mL; in [9] it was 3.13 µg/mL; in experiment [10] it was 0.39 µg/mL (≈ 1.08 µM); in [11], 0.39 µg/mL (≈ 1.08 µM); in [13] (54 strains of clinically isolated methicillin resistant Staphylococcus aureus), 0.39 to 1.56 µg/mL (≈ 1.08 to 4.32 µM). The ED50 in experiment [12] came out at 22.9 mg/kg; in the experiment with Escherichia coli KC-14 [14] it was 1.1 mg/kg; in the experiment with E. coli KC-14 it was 50 mg/kg. The MIC50 in experiment [13] (Staphylococcus aureus, minimum concentration for inhibiting the growth of the strains by 50%, 54 strains) came to 0.39 µg/mL (≈ 1.08 µM). The compound also displayed an MIC90 in [13] (Staphylococcus aureus, minimum concentration for inhibiting the growth of the strains by 90%, 54 strains) of 1.56 µg/mL (≈ 4.32 µM). The “antibacterial activity (in words)” value in the experiment with bacteria is reported as “excellent antibacterial activity”.

These data come from US4808584A, “Quinolinecarboxylic acid derivatives and antibacterial agent containing the same” (Kanebo, Ltd., priority 1987, dated 1989).
